Molecules are shown by their SMILES.

Series [1] can be described thus: Solubility in organic solvents. In kind it is physicochemical. How it is done:
Before fabricating the FETs, the solubility of the two semiconductor compositions in tetrahydrofuran (THF) was determined.

Series [2] is described as follows: Viscosity of formulation or solution. Type of series: physicochemical. Particulars: c = 500 ppm, cyclohexanol/THFA/THF = 86:9:5.
The nature of series [3]: Solubility in organic solvents. In kind it is physicochemical. The source holds these as a separate data set.

Take `CC(C)(C)[Si](OCCCCCCOc1ccc(-c2ccc(-c3ccc(-c4ccc(OCCCCCCO[Si](c5ccccc5)(c5ccccc5)C(C)(C)C)cc4)s3)s2)cc1)(c1ccccc1)c1ccccc1` [6(6TBDPSO)-O-PTTP-O-6(6TBDPSO), 5,5′-Bis-{4-[6-(tert-butyl-diphenyl-silanyloxy)-hexyloxy]-phenyl}-[2,2′]bithiophenyl]: the “solubility in THF” value in series [1] (THF) is given as “Well soluble in THF(about 310,000 ppm);”.
In turn, `CCCCC(C)COc1ccc(-c2ccc(-c3ccc(-c4ccc(OCC(C)CCCC)cc4)s3)s2)cc1` (stereo not shown) [6(2Me)-O-PTTP-O-6(2Me), 5,5′-bis(4-(2-methylhexyloxy)phenyl)-2,2′-bithiophene] yielded a melting point of 197 °C. Further, the “solubility in THF” value in series [1] (THF) is “sufficiently soluble in THF(about 61,000 ppm)DSC: mp = 197 °C”.
Take `CCCOCCc1ccc(-c2ccc(-c3ccc(-c4ccc(CCOCCC)cc4)s3)s2)cc1` [3O2PTTP2O3, 5,5′-Bis(4-(propxyethyl)phenyl)-2,2′-bithiophene]: in series [1] (compared with 6PTTP6), the “solubility (in words)” value was “Solubility like6PTTP6”.
With `CCCCC(CC)COc1ccc(-c2ccc(-c3ccc(-c4ccc(OCC(CC)CCCC)cc4)s3)s2)cc1` (stereo not shown) [6(2Et)-O-PTTP-O-6(2Et), 5,5′-bis(4-(2-ethylhexyloxy)phenyl)-2,2′-bithiophene], the melting point was 148 °C. Further, in series [2], the “viscosity η of formulation” value was 22 mPas. Also, in series [3], the solubility in o-xylene is listed as ~25,000 ppm. For the same compound, in series [1] (THF), the “solubility in THF” value was ~70,000 ppm.
As for `CCC(CC)COc1ccc(-c2ccc(-c3ccc(-c4ccc(OCC(CC)CC)cc4)s3)s2)cc1` [4(2Et)-O-PTTP-O-4(2Et), 5,5′-bis(4-(2-ethylbutyloxy)phenyl)-2,2′-bithiophene], in series [1] (THF), the “solubility in THF” value was “solubility in THF about4,900 ppm”.
The compound `CCCCCCOc1ccc(-c2ccc(-c3ccc(-c4ccc(OCCCCCC)cc4)s3)s2)cc1` [6-O-PTTP-O-6, 5,5′-bis(4-hexyloxyphenyl)-2,2′-bithiophene] had a melting point of 243 °C. The “solubility in THF” value in series [1] (THF) is “solubility in THF about600 ppm, lowest value byfar. Differential scanningcalorimetry (“DSC”);melting point = 243° C.,smaller transitions at 65,148, 176, 255, 261° C.(doastereomers or LC)”.
As to `CCCCCC(C)Oc1ccc(-c2ccc(-c3ccc(-c4ccc(OC(C)CCCCC)cc4)s3)s2)cc1` (stereo not shown) [6(1Me)-O-PTTP-O-6(1Me), 5,5′bis(4-(1-methylhexyloxy)phenyl)-2,2′-bithiophene], the melting point turned out to be 143 °C. For the same compound, the “solubility in 2-Ethylhexanol” value in series [3] (2-Ethylhexanol) is given as ~800 ppm. In addition, the “solubility in THF/cyclohexanol 2:8” value in series [3] (THF/cyclohexanol 2:8 (viscosity 9 mPas)) is 4,000 ppm. Besides, the solubility in o-xylene in series [3] is recorded as 54,000 ppm. In series [1] (THF), the “solubility in THF relative to 7(2Me)-PTTP-7(2Me)” value was “approximately twice”.
In the case of `CC(CO)COc1ccc(-c2ccc(-c3ccc(-c4ccc(OCC(C)CO)cc4)s3)s2)cc1` (stereo not shown) [3(3OH,2Me)-O-PTTP-O-3(3OH,2Me), 3-(4-{5′-[4-(3-Hydroxy-2-methyl-propoxy)-phenyl]-[2,2′]bithiophenyl-5-yl}-phenoxy)-2-methyl-propan-1-ol], in series [1] (THF), the “solubility in THF” value is on record as “Low solubility in THF(600 ppm)”.
Consider `CCCCCC(CC)Oc1ccc(-c2ccc(-c3ccc(-c4ccc(OC(CC)CCCCC)cc4)s3)s2)cc1` (stereo not shown) [6(1Et)-O-PTTP-O-6(1Et), 5,5′-Bis-[4-(1-ethyl-hexyloxy)-phenyl]-[2,2′]bithiophenyl], for which the melting point lay within 97 to 102 °C. The “solubility in THF” value in series [1] (THF) is on record as “Well soluble in THF(about 330,000 ppm)DSC: mp = 97-102° C.,(broad transition)”.
`C=CC(C=C)OC(=O)CCCCCOc1ccc(-c2ccc(-c3ccc(-c4ccc(OCCCCCC(=O)OC(C=C)C=C)cc4)s3)s2)cc1` [6-[4-(5′-[5-(1-Vinyl-allyloxycarbonyl)-pentyloxy]-phenyl}-[2,2′]bithiophenyl-5-yl)-phenoxy]-hexanoic acid 1-vinyl-allyl ester]: in series [1] (THF), the “solubility in THF” value is “well soluble in THF(131,000 ppm)”.
`CC(C)CCCC(C)CCOc1ccc(-c2ccc(-c3ccc(-c4ccc(OCCC(C)CCCC(C)C)cc4)s3)s2)cc1` (stereo not shown) [8(3,7Me)-O-PTTP-O-8(3,7Me), 5,5′-bis(4-(3,7-dimethyloctyloxy)phenyl)-2,2′-bithiophene] yielded a melting point of 192 °C. In addition, the “solubility in THF” value in series [1] (THF) is on record as “solubility in THF about12,000 ppmDCS: mp = 192° C., smallertransition at 143° C.(diastereomer or LC)”.
Consider `CC(COc1ccc(-c2ccc(-c3ccc(-c4ccc(OCC(C)COC5CCCCO5)cc4)s3)s2)cc1)COC1CCCCO1` (stereo not shown) [3(3THPO,2Me)-O-PTTP-O-3(THPO,2Me), 5,5′-Bis-[4-(2-methyl-propoxy-tetrahydro-pyran)-phenoxy]-[2,2′]bithiophenyl], for which the “solubility in THF” value in series [1] (THF) was “Well soluble in THF(about 75,000 ppm)”.
In the case of `CC(C)CCCOc1ccc(-c2ccc(-c3ccc(-c4ccc(OCCCC(C)C)cc4)s3)s2)cc1` [5(4Me)-O-PTTP-O-5(4Me), 5,5′-bis(4-(4-methylpentyloxy)phenyl)-2,2′-bithiophene], the melting point was determined as 250 °C. Moreover, the “solubility in THF” value in series [1] (THF) is “solubility in THF about5400 ppm. DSC: mp =250° C., smaller transitionaround 173 °C (couldbe LC)”.

The record behind these values is patent publication US7488834B2, “Organic semiconductors” (Alcatel-Lucent USA Inc., priority 2005, dated 2009).
